The target in assay [1] is T1, human NK2 receptor (Homo sapiens, UniProt P21452).
T1 construct: expressed in transfected cells; host or cells: Chinese hamster ovary (CHO) cells, membranes
T1 sequence (P21452 1-398): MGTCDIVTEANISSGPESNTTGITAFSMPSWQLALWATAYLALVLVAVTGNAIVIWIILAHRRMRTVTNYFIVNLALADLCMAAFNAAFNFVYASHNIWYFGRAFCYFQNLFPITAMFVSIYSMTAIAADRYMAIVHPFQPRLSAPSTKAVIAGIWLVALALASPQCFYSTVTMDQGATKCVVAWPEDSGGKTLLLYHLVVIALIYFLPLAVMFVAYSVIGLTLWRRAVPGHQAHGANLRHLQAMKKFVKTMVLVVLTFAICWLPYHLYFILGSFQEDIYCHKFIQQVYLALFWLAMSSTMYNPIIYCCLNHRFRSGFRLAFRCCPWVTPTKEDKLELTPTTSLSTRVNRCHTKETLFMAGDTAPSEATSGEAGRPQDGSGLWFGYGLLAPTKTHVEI
The assay is described as follows: NK2 receptor binding: competition with [3H] or [125I]NKA for binding to CHO cell membranes expressing cloned human NK2 receptor. To be noted: membranes of Chinese hamster ovary cells expressing cloned human NK2 receptor, 90 min, 25° C., read-out: plC50, NK2 receptor binding activity (converted). The procedure: The affinity of the compounds of formula (I) and their salts for the human NK2 receptor can be tested in vitro by testing their ability to compete with [^3 H] or […] (neurokinin A) for binding to membranes prepared from Chinese hamster ovary cells expressing the cloned human NK2 receptor. In this method, washed Chinese hamster ovary cell membranes are prepared as described for the previous method where IM9 cells are used instead. The membranes are incubated (90 min, 25° C.) with [^3 H] or [^125 I] NKA and with a range of concentrations of the test compound. Non-specific binding was determined in the presence of 10μM NKA.

The target in assay [2] is T2, NK2 receptor (Oryctolagus cuniculus, UniProt P79218).
T2 construct: in the rabbit pulmonary artery; from tissue; host or cells: rabbit pulmonary artery
T2 sequence (P79218 1-384): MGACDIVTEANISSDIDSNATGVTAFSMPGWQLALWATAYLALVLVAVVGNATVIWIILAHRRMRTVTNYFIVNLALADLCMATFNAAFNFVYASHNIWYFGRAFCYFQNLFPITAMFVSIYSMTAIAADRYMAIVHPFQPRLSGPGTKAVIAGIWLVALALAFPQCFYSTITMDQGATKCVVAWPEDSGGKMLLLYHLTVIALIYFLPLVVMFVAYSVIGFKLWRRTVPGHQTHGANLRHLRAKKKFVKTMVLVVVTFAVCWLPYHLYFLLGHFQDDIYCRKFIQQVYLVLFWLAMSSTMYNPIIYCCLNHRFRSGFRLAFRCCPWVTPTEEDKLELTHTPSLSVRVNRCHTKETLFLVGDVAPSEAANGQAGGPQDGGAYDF
The assay is described as follows: NK2 receptor antagonist activity in vitro: antagonism of contractile effects of [βAla8]NKA(4-10) in rabbit pulmonary artery (Patacchini and Maggi). The format is biochemical. The conditions noted are these: agonist [βAla8]NKA(4-10), read-out: pA2, NK2 receptor antagonist activity (converted). The text has this:
The NK2 receptor antagonist activity of the compounds of the formula (I) can be tested, in vitro, by testing their ability to antagonise the contractile effects of the selective NK2 receptor agonist [βAla^8 ]NKA(4-10) in the rabbit pulmonary artery, using the method of Patacchini and Maggi, Eur. J. Pharmacol., 236, 31-37 (1993).

Each structure is given as a SMILES string.

For the compound `NS(=O)(=O)N1CCN(C2CN(CC[C@]3(c4ccc(Cl)c(Cl)c4)CCC(=O)N(CC4CCCCC4)C3=O)C2)CC1` [Example 3, 3(S)-3-(2-(3-(4-Aminosulphonylpiperazin-1-yl)azetidin-1-yl)ethyl)-1-cyclohexylmethyl-3-(3,4-dichlorophenyl)glutarimide], the IC50 in assay [1] was 0.501 nM. The Kb in assay [2] is 7.94 nM.

The values are drawn from patent US5741790A, “Azetidines” (Pfizer Inc., priority 1996, dated 1998).
